From patent US20190031665A1, “DERIVATIVES OF PYRROLOIMIDAZOLE OR ANALOGUES THEREOF WHICH ARE USEFUL FOR THE TREATMENT OF INTER ALIA CANCER” (EMCURE PHARMACEUTICALS LIMITED, priority 2016, published 2019)

Legend:
[1] = target: T1, human indoleamine 2,3-dioxygenase 1 (hIDO1) (Homo sapiens, UniProt P14902); assay: In-vitro human indoleamine 2,3-dioxygenase 1 (IDO1) enzyme assay; format: biochemical; conditions: for inhibition at 1 µM: hIDO1 enzyme at 1.0 μM concentration; for inhibition at 10 µM: hIDO1 enzyme at 10.0 μM concentration; for IC50: hIDO1 enzyme
T1 construct: His tag (N); purchased BPS Bioscience, San Diego, Calif., USA; host or cells: E. coli
Method: (§1) In-vitro human indoleamine 2,3-dioxygenase 1 (IDO1) enzyme assay: In the in-vitro human indoleamine 2,3-dioxygenase 1 (hIDO1) enzyme assay for screening inhibitor compounds, hIDO1 with an N-terminal histidine tag expressed and purified from E. coli (BPS Bioscience, San Diego, Calif., USA) was used. All other materials were procured from Sigma-Aldrich, St. Louis, Mo., USA.
The assay method for monitoring the conversion of L-tryptophan to N-formylkynurenine by hlDO1 was carried out as follows. hlDO1 (50 ng) was incubated with tryptophan (80 μM) in the presence of ascorbic acid (10 mM), methylene blue (10 μM), catalase (100 μg/ml) and 0.01% Tween-20 in sodium phosphate buffer (50 mM; pH 6.5) at 37° C. for 60 min. The reaction was terminated with 200 mM piperidine (PIP) and further incubated at about 65° C. for about 20 minutes to convert N-formylkynurenine (NFK) to NFK-PIP. The reaction mixture was then incubated at room temperature for about 1 hour. The fluorescence intensity was read in a fluorescence microplate reader at an excitation wavelength of 400 nm and emission wavelength of 500 nm. Percent inhibition at each concentration of test compounds was determined by estimating the decrease in NFK-PIP. Data were analyzed using nonlinear regression to generate IC50 values using Graph Pad Prism® 6.

[2] = target: T2, human tryptophan 2,3-dioxygenase (hTDO) (Homo sapiens, UniProt P48775); assay: In-vitro human tryptophan 2,3-dioxygenase (TDO) enzyme assay; format: biochemical; conditions: for inhibition at 1 µM: hTDO enzyme at 1.0 μM concentration; for inhibition at 10 µM: hTDO enzyme at 10.0 μM concentration
T2 construct: His tag (N); purchased BPS Bioscience, San Diego, Calif., USA; host or cells: E. coli
Method: as §1, with “In” for “In-vitro human indoleamine 2,3-dioxygenase 1 (IDO1) enzyme assay: In”, “tryptophan” for “indoleamine”, “(hTDO)” for “1 (hIDO1)”, “hTDO” for “hIDO1”
The assay monitoring method for the conversion of L-tryptophan to N-formylkynurenine by hTDO was carried out as follows. hTDO (125 ng) was incubated in the presence of 200 μM L-tryptophan, 100 mM sodium phosphate buffer (pH 7.0), 0.01% Tween-20 and 100 μM ascorbic acid at about 37° C. for about 60 minutes. The reaction was terminated with 200 mM piperidine (PIP) and further incubated at about 65° C. for about 20 minutes to convert N-formylkynurenine (NFK) to NFK-PIP. The reaction mixture was then incubated at room temperature for about 75 minutes. The fluorescence intensity was read in a fluorescence microplate reader at an excitation wavelength of 400 nm and emission wavelength of 500 nm. Percent inhibition at each concentration of test compounds was determined by estimating the decrease in NFK-PIP. Data were analyzed using nonlinear regression to generate IC50 values using Graph Pad Prism® 6.

T1 sequence (P14902 whole entry): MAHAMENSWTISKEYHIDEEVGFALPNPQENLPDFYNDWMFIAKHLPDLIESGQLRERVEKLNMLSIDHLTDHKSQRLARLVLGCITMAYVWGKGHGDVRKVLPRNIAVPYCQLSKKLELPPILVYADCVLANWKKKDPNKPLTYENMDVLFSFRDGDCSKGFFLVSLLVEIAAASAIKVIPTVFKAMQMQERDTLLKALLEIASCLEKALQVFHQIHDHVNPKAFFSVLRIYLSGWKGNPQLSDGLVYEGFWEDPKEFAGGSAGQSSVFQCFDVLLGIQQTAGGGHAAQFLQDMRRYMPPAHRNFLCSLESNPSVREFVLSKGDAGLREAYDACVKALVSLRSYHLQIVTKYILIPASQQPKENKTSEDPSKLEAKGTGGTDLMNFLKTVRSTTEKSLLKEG
T2 sequence (P48775 whole entry): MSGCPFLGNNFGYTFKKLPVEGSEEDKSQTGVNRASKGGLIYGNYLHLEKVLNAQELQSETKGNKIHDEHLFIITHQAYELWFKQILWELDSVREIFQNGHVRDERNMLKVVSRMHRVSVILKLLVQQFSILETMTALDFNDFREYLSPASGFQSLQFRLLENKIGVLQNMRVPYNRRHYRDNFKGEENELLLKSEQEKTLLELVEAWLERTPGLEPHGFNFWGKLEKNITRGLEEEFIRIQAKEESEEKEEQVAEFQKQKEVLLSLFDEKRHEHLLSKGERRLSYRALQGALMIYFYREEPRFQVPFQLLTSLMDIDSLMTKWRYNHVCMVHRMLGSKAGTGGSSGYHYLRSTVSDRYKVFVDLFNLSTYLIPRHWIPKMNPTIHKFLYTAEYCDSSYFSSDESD

SMILES: CC1=C(c2ccccc2)C(C[C@H](O)C2CCC(C(=O)O)CC2)n2cncc21 (stereo partly shown) [Example 133]
- inhibition at 1 µM [1]: ≤ 50%
- inhibition at 10 µM [1]: ≥ 50%
- inhibition at 1 µM [2]: ≥ 50%

SMILES: CC1=C(c2ccccc2)C(CC(O)C2CCN(C(=O)Nc3cccc(C)n3)CC2)n2cncc21 (stereo not shown) [Example 183]
- IC50 [1]: < 500 nM
- inhibition at 1 µM [1]: ≥ 50%
- inhibition at 10 µM [1]: ≥ 50%
- inhibition at 1 µM [2]: ≤ 50%

SMILES: CC1=C(c2ccccc2)C(CC(O)C2CCN(C(=O)c3ccnc(C)c3)CC2)n2cncc21 (stereo not shown) [Example 164, {4-[1-Hydroxy-2-(7-methyl-6-phenyl-5H-pyrrolo[1,2-c]imidazol-5-yl)-ethyl]-piperidin-1-yl}-(2-methyl-pyridin-4-yl)-methanone]
- inhibition at 1 µM [1]: ≤ 50%
- inhibition at 10 µM [1]: ≥ 50%
- inhibition at 1 µM [2]: ≤ 50%

SMILES: O=C(CC1C(c2ccccc2)=Cc2cncn21)c1ccccc1 (stereo not shown) [Example 169, 1-Phenyl-2-(6-phenyl-5H-pyrrolo[1,2-c]imidazol-5-yl)-ethanone]
- inhibition at 1 µM [1]: ≤ 50%
- inhibition at 10 µM [1]: ≥ 50%
- inhibition at 10 µM [2]: ≥ 50%

SMILES: CC1=C(c2ccccc2)C(CC(=O)c2cccc(F)c2)n2cncc21 (stereo not shown) [Example 20, 1-(3-Fluoro-phenyl)-2-(7-methyl-6-phenyl-5H-pyrrolo[1,2-c]imidazol-5-yl)-ethanone]
- IC50 [1]: > 500 nM
- inhibition at 1 µM [1]: ≥ 50%
- inhibition at 10 µM [1]: ≥ 50%
- inhibition at 1 µM [2]: ≥ 50%
- inhibition at 10 µM [2]: ≥ 50%

SMILES: CC1=C(c2ccccc2)C(CC(O)c2ccc(-c3ccncc3)cc2)n2cncc21 (stereo not shown) [Example 59]
- inhibition at 1 µM [1]: ≤ 50%
- inhibition at 10 µM [1]: ≥ 50%
- inhibition at 1 µM [2]: ≤ 50%

SMILES: CC1=C(c2ccccc2)C(CC(=O)c2ccc(Cl)cc2)n2cncc21 (stereo not shown) [Example 38, 1-(4-chlorophenyl)-2-(7-methyl-6-phenyl-5H-pyrrolo[1,2-c]imidazol-5-yl)ethan-1-one]
- IC50 [1]: < 500 nM
- inhibition at 1 µM [1]: ≥ 50%
- inhibition at 10 µM [1]: ≥ 50%
- inhibition at 1 µM [2]: ≥ 50%

SMILES: CC1=C(c2ccccc2)C(CC(=O)c2ccc(-c3ccccc3F)cc2)n2cncc21 (stereo not shown) [Example 58]
- IC50 [1]: < 500 nM
- inhibition at 1 µM [1]: ≥ 50%
- inhibition at 10 µM [1]: ≥ 50%
- inhibition at 1 µM [2]: ≤ 50%

SMILES: CC1=C(c2ccccc2)C(CC(O)c2ccc(-c3ccsc3)cc2)n2cncc21 (stereo not shown) [Example 60]
- inhibition at 1 µM [1]: ≤ 50%
- inhibition at 10 µM [1]: ≥ 50%
- inhibition at 1 µM [2]: ≤ 50%

SMILES: OC(CC1C2=C(CCCC2)c2cncn21)c1cc(F)ccc1F (stereo not shown) [Example 10]
- inhibition at 10 µM [1]: ≤ 50%
- inhibition at 10 µM [2]: ≥ 50%

SMILES: CC1=C(c2ccccc2)C(CC(=O)c2ccc(-c3cccnc3)cc2)n2cncc21 (stereo not shown) [Example 55]
- IC50 [1]: < 500 nM
- inhibition at 1 µM [1]: ≥ 50%
- inhibition at 10 µM [1]: ≥ 50%
- inhibition at 1 µM [2]: ≥ 50%

SMILES: O=C(CC1C2=C(CCCC2)c2cncn21)c1cccc(Cl)c1 (stereo not shown) [Example 3]
- inhibition at 10 µM [1]: ≤ 50%
- inhibition at 10 µM [2]: ≥ 50%

SMILES: CC1=C(c2ccccc2)C(CC(=O)C2CCCN2S(=O)(=O)c2ccc(C)cc2)n2cncc21 (stereo not shown) [Example 113]
- inhibition at 1 µM [1]: ≤ 50%
- inhibition at 10 µM [1]: ≥ 50%
- inhibition at 1 µM [2]: ≥ 50%

SMILES: CC1=C(c2ccccc2)C(CC(=O)C2CCC(C(=O)Nc3ccccc3)CC2)n2cncc21 (stereo not shown) [Example 109, 4-(2-(7-methyl-6-phenyl-5H-pyrrolo[1,2-c]imidazol-5-yl)acetyl)-N-phenylcyclohexane-1-carboxamide]
- inhibition at 1 µM [1]: ≤ 50%
- inhibition at 10 µM [1]: ≥ 50%
- inhibition at 1 µM [2]: ≥ 50%

SMILES: CC1=C(c2ccccc2)C(CC(O)C2CCC(F)(F)CC2)n2cncc21 (stereo not shown) [Example 184]
- IC50 [1]: < 500 nM
- inhibition at 1 µM [1]: ≥ 50%
- inhibition at 10 µM [1]: ≥ 50%
- inhibition at 1 µM [2]: ≥ 50%

SMILES: CC1=C(c2ccccc2)C(CC(=O)c2ccc3c(c2)OCO3)n2cncc21 (stereo not shown) [Example 28, 1-Benzo[1,3]dioxol-5-yl-2-(7-methyl-6-phenyl-5H-pyrrolo[1,2-c]imidazol-5-yl)-ethanone]
- IC50 [1]: < 500 nM
- inhibition at 1 µM [1]: ≥ 50%
- inhibition at 10 µM [1]: ≥ 50%
- inhibition at 1 µM [2]: ≥ 50%
- inhibition at 10 µM [2]: ≥ 50%

SMILES: O=C(CC1C(c2ccccc2)=C(c2ccccc2)c2cncn21)C1CCCCC1 (stereo not shown) [Example 102]
- inhibition at 1 µM [1]: ≤ 50%
- inhibition at 10 µM [1]: ≤ 50%
- inhibition at 1 µM [2]: ≤ 50%

SMILES: CC(C)C1=C(c2ccccc2)C(CC(=O)C2CCCCC2)n2cncc21 (stereo not shown) [Example 106]
- inhibition at 1 µM [1]: ≤ 50%
- inhibition at 10 µM [1]: ≤ 50%
- inhibition at 1 µM [2]: ≤ 50%

SMILES: CC1=C(c2ccccc2)C(CC(=O)c2ccc3c(c2)CCCC3)n2cncc21 (stereo not shown) [Example 47, 2-(7-methyl-6-phenyl-5H-pyrrolo[1,2-c]imidazol-5-yl)-1-(5,6,7,8-tetrahydronaphthalen-2-yl)ethan-1-one]
- inhibition at 1 µM [1]: ≥ 50%
- inhibition at 10 µM [1]: ≥ 50%
- inhibition at 1 µM [2]: ≥ 50%

SMILES: CC1=C(c2ccccc2)C(C[C@H](O)C2CCC(C(=O)NC3CCCCC3)CC2)n2cncc21 (stereo partly shown) [Example 126]
- IC50 [1]: < 500 nM
- inhibition at 1 µM [1]: ≥ 50%
- inhibition at 10 µM [1]: ≥ 50%
- inhibition at 1 µM [2]: ≥ 50%

SMILES: CC1=C(c2ccccc2)C(CC(=O)c2ccc(-c3ccccc3)cc2)n2cncc21 (stereo not shown) [Example 41, 1-([1,1′-biphenyl]-4-yl)-2-(7-methyl-6-phenyl-5H-pyrrolo[1,2-c]imidazol-5-yl)ethan-1-one]
- IC50 [1]: < 500 nM
- inhibition at 1 µM [1]: ≥ 50%
- inhibition at 10 µM [1]: ≥ 50%
- inhibition at 1 µM [2]: ≥ 50%

SMILES: CC1=C(c2ccccc2F)C(CC(=O)C2CCC(O)CC2)n2cncc21 (single isomer, unassigned) [Example 97]
- inhibition at 1 µM [1]: ≤ 50%
- inhibition at 1 µM [2]: ≥ 50%

SMILES: CC1=C(c2cccc(F)c2)C(CC(O)c2ccccc2)n2cncc21 (stereo not shown) [Example 16, 2-[6-(3-Fluoro-phenyl)-7-methyl-5H-pyrrolo[1,2-c]imidazol-5-yl]-1-phenyl-ethanol]
- inhibition at 1 µM [1]: ≤ 50%
- inhibition at 10 µM [1]: ≥ 50%
- inhibition at 10 µM [2]: ≥ 50%

SMILES: CCCCCCCCC(O)CC1C(c2ccccc2)=C(C)c2cncn21 (stereo not shown) [Compound 171, 1-(7-Methyl-6-phenyl-5H-pyrrolo[1,2-c]imidazol-5-yl)-decan-2-ol]
- inhibition at 1 µM [1]: ≥ 50%
- inhibition at 10 µM [1]: ≥ 50%
- inhibition at 10 µM [2]: ≥ 50%

SMILES: COc1ccc(C(=O)CC2C(c3ccccc3)=C(C)c3cncn32)cc1 (stereo not shown) [Example 37, 1-(4-methoxyphenyl)-2-(7-methyl-6-phenyl-5H-pyrrolo[1,2-c]imidazol-5-yl)ethan-1-one]
- IC50 [1]: < 500 nM
- inhibition at 1 µM [1]: ≥ 50%
- inhibition at 10 µM [1]: ≥ 50%
- inhibition at 1 µM [2]: ≥ 50%

SMILES: CC1=C(c2ccccc2)C(CC(=O)c2ccc(Br)cc2)n2cncc21 (stereo not shown) [Example 51, 1-(4-bromophenyl)-2-(7-methyl-6-phenyl-5H-pyrrolo[1,2-c]imidazol-5-yl)ethan-1-one]
- IC50 [1]: > 500 nM
- inhibition at 1 µM [1]: ≥ 50%
- inhibition at 10 µM [1]: ≥ 50%
- inhibition at 1 µM [2]: ≥ 50%

SMILES: CC1=C(c2ccccc2)C(CC(O)c2ccc(C(=O)Nc3ccc(Cl)cc3)cc2)n2cncc21 (stereo not shown) [Example 82]
- inhibition at 1 µM [1]: ≤ 50%
- inhibition at 10 µM [1]: ≥ 50%
- inhibition at 1 µM [2]: ≤ 50%

SMILES: CC1=C(c2ccccc2)C(CC(=O)C2CCOCC2)n2cncc21 (stereo not shown) [Example 100]
- inhibition at 1 µM [1]: ≤ 50%
- inhibition at 10 µM [1]: ≥ 50%
- inhibition at 1 µM [2]: ≥ 50%

SMILES: COC(=O)c1ccc(C(=O)CC2C(c3ccccc3)=C(C)c3cncn32)cc1 (single isomer, unassigned; isomer-i) [Example 71, 4-[2-(7-Methyl-6-phenyl-5H-pyrrolo[1,2-c]imidazol-5-yl)-acetyl]-benzoic acid methyl ester, Isomer-I]
- IC50 [1]: < 500 nM
- inhibition at 1 µM [1]: ≥ 50%
- inhibition at 10 µM [1]: ≥ 50%
- inhibition at 1 µM [2]: ≥ 50%
- inhibition at 10 µM [2]: ≥ 50%

SMILES: CC1=C(c2ccccc2)C(CC(=O)c2ccc(F)cc2)n2cncc21 (stereo not shown) [Example 34, 1-(4-fluorophenyl)-2-(7-methyl-6-phenyl-5H-pyrrolo[1,2-c]imidazol-5-yl)ethan-1-one]
- inhibition at 1 µM [1]: ≥ 50%
- inhibition at 10 µM [1]: ≥ 50%
- inhibition at 1 µM [2]: ≥ 50%
- inhibition at 10 µM [2]: ≥ 50%

SMILES: CC1=C(c2ccccc2)C(CC(O)C2CCC(O)CC2)n2cncc21 (stereo not shown) [Example 127]
- inhibition at 1 µM [1]: ≥ 50%
- inhibition at 1 µM [2]: ≥ 50%

SMILES: CC1=C(c2ccccc2)C(CC(O)C2CCN(S(=O)(=O)c3ccccc3)CC2)n2cncc21 (stereo not shown) [Example 145]
- IC50 [1]: < 500 nM
- inhibition at 1 µM [1]: ≥ 50%
- inhibition at 10 µM [1]: ≥ 50%
- inhibition at 1 µM [2]: ≥ 50%
